Toxic doses and inconclusive results are not listed.

The assay has as its system L1210 leukemia ip in BDF1 mice, survival T/C. Description: NCI In Vivo Anticancer Drug Screen. Data for tumor model L1210 Leukemia (intraperitoneal) in B6D2F1 (BDF1) mice. The note with it: endpoint: mean survival time, higher = longer survival. In short, it runs like this: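 Transplanted-tumor mice were given test agent; controls received vehicle only. Survival readings from the two groups were divided (treated over control).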

[1] abbreviates: dose: 50.0 mg/kg/injection, schedule: Q01DX009 (ip), vehicle: saline with Tween-80.
The mark [2] stands for this setting: dose: 100.0 mg/kg/injection, schedule: Q04DX003 (ip), vehicle: saline with Tween-80.
The mark [3] stands for this setting: dose: 100.0 mg/kg/injection, schedule: Q01DX001 (ip), vehicle: saline.
Setting [4] is: dose: 100.0 mg/kg/injection, schedule: Q04DX003 (ip), vehicle: Klucel (hydroxypropylcellulose) (HPC).
Where [5] appears, read: dose: 200.0 mg/kg/injection, schedule: Q04DX003 (ip), vehicle: Klucel (hydroxypropylcellulose) (HPC).
[6] abbreviates: dose: 400.0 mg/kg/injection, schedule: Q04DX003 (ip), vehicle: Klucel (hydroxypropylcellulose) (HPC).
[7] abbreviates: dose: 100.0 mg/kg/injection, schedule: Q04DX002 (ip), vehicle: Klucel (hydroxypropylcellulose) (HPC).
Setting [8] is: dose: 100.0 mg/kg/injection, schedule: Q01DX001 (ip), vehicle: carboxymethylcellulose (CMC).
[9] abbreviates: dose: 100.0 mg/kg/injection, schedule: Q01DX009 (ip), vehicle: Klucel (hydroxypropylcellulose) (HPC).
Where [10] appears, read: dose: 100.0 mg/kg/injection, schedule: Q01DX001 (ip), vehicle: Klucel (hydroxypropylcellulose) (HPC).
Setting [11] is: dose: 200.0 mg/kg/injection, schedule: Q01DX001 (ip), vehicle: Klucel (hydroxypropylcellulose) (HPC).
[12] abbreviates: dose: 100.0 mg/kg/injection, schedule: Q01DX009 (ip), vehicle: saline.
The mark [13] stands for this setting: dose: 100.0 mg/kg/injection, schedule: Q04DX003 (ip), vehicle: saline.
The mark [14] stands for this setting: dose: 200.0 mg/kg/injection, schedule: Q04DX003 (ip), vehicle: saline.

Take `COc1ccc(N=NN(C)C)cc1`: the T/C runs as follows: (dose: 6.25 mg/kg/injection, schedule: Q01DX009 (ip), vehicle: saline with Tween-80) 98 % of control; (dose: 12.5 mg/kg/injection, schedule: Q01DX009 (ip), vehicle: saline with Tween-80) 100 % of control; (dose: 12.5 mg/kg/injection, schedule: Q04DX003 (ip), vehicle: saline with Tween-80) 107 % of control; (dose: 18.75 mg/kg/injection, schedule: Q01DX001 (ip), vehicle: saline with Tween-80) 107 % of control; (dose: 25.0 mg/kg/injection, schedule: Q01DX009 (ip), vehicle: saline with Tween-80) 100 % of control; (dose: 25.0 mg/kg/injection, schedule: Q04DX003 (ip), vehicle: saline with Tween-80) 108 % of control. For the same molecule, the T/C (dose: 37.5 mg/kg/injection, schedule: Q01DX001 (ip), vehicle: saline with Tween-80) is 108 % of control; the T/C under setting [1] is 104 % of control; the T/C (dose: 50.0 mg/kg/injection, schedule: Q04DX003 (ip), vehicle: saline with Tween-80) is 115 % of control; the T/C under setting [2] is 108 % of control.
`COc1ccc(C2(C)C(C#N)C(=O)NC(=O)C2C#N)cc1` (stereo not drawn): the T/C runs as follows: under setting [3], 98 % of control; (dose: 200.0 mg/kg/injection, schedule: Q01DX001 (ip), vehicle: saline) 122 % of control; (dose: 400.0 mg/kg/injection, schedule: Q01DX001 (ip), vehicle: saline) 104 % of control.
Regarding `CN(N=O)C(=O)NCCCCCNC(=O)N(C)N=O`, the T/C by setting is: (dose: 6.25 mg/kg/injection, schedule: Q01DX Z (ip), vehicle: carboxymethylcellulose (CMC)) 102 % of control; (dose: 12.5 mg/kg/injection, schedule: Q01DX Z (ip), vehicle: carboxymethylcellulose (CMC)) 100 % of control; (dose: 25.0 mg/kg/injection, schedule: Q01DX Z (ip), vehicle: carboxymethylcellulose (CMC)) 106 % of control; (dose: 50.0 mg/kg/injection, schedule: Q01DX Z (ip), vehicle: carboxymethylcellulose (CMC)) 108 % of control; (dose: 150.0 mg/kg/injection, schedule: Q01DX Z (ip), vehicle: carboxymethylcellulose (CMC)) 191 % of control; (dose: 175.0 mg/kg/injection, schedule: Q01DX Z (ip), vehicle: carboxymethylcellulose (CMC)) 166 % of control. In addition, the T/C reads like this: (dose: 200.0 mg/kg/injection, schedule: Q01DX Z (ip), vehicle: carboxymethylcellulose (CMC)) 158 % of control; (dose: 210.0 mg/kg/injection, schedule: Q01DX001 (ip), vehicle: carboxymethylcellulose (CMC)) 117 % of control.
For the molecule `CCCCC(CC)CCC(O)CCC(CC)CC` (stereo not drawn), the T/C reads like this: under setting [4], 102 % of control; under setting [5], 98 % of control; under setting [6], 102 % of control.
Regarding `CCCCCCCN=C(N)c1ccc(C(=O)OC2CCCCC2)cc1`, the T/C under setting [3] is 96 % of control.
Take `C=CCc1ccc(OCCOCCN(C)C2CCCCC2)c(OC)c1`: under setting [4], the T/C is 90 % of control.
With `CCOC(=O)NCC(CCN(C)C)(CN(C)C)c1cccc2ccccc12` (stereo not drawn), the T/C is 102 % of control (dose: 50.0 mg/kg/injection, schedule: Q04DX002 (ip), vehicle: Klucel (hydroxypropylcellulose) (HPC)) and 106 % of control under setting [7].
For `[Cl][Hg][CH2]C1COC([CH2][Hg][Cl])CO1` (stereo not drawn), the T/C by setting is: (dose: 25.0 mg/kg/injection, schedule: Q01DX001 (ip), vehicle: carboxymethylcellulose (CMC)) 90 % of control; (dose: 50.0 mg/kg/injection, schedule: Q01DX001 (ip), vehicle: carboxymethylcellulose (CMC)) 92 % of control; under setting [8], 95 % of control.
For `Cc1cccc(OCCOC(=O)Nc2ccc(C)cc2[N+](=O)[O-])c1`, the T/C under setting [1] is 97 % of control; the T/C (dose: 100.0 mg/kg/injection, schedule: Q01DX009 (ip), vehicle: saline with Tween-80) was 87 % of control; the T/C under setting [2] is 103 % of control; the T/C (dose: 200.0 mg/kg/injection, schedule: Q04DX003 (ip), vehicle: saline with Tween-80) was 94 % of control; the T/C (dose: 400.0 mg/kg/injection, schedule: Q04DX003 (ip), vehicle: saline with Tween-80) is 99 % of control.
Take `Cc1ccc(N2C(=O)CC(NC3CCCCC3)C2=O)cc1` (stereo not drawn): the T/C runs as follows: under setting [9], 97 % of control; (dose: 200.0 mg/kg/injection, schedule: Q01DX009 (ip), vehicle: Klucel (hydroxypropylcellulose) (HPC)) 100 % of control; (dose: 400.0 mg/kg/injection, schedule: Q01DX009 (ip), vehicle: Klucel (hydroxypropylcellulose) (HPC)) 97 % of control.
With `O=C(OCC(OC(=O)c1ccccc1)C(OC(=O)c1ccccc1)C(COC(=O)c1ccccc1)OC(=O)c1ccccc1)c1ccccc1` (stereo not drawn), the T/C by setting is: under setting [7], 93 % of control; (dose: 200.0 mg/kg/injection, schedule: Q04DX002 (ip), vehicle: Klucel (hydroxypropylcellulose) (HPC)) 105 % of control; (dose: 400.0 mg/kg/injection, schedule: Q04DX002 (ip), vehicle: Klucel (hydroxypropylcellulose) (HPC)) 93 % of control.
With `CN=C(NO)c1ccccc1C`, the T/C is 100 % of control under setting [8] and 97 % of control (dose: 200.0 mg/kg/injection, schedule: Q01DX001 (ip), vehicle: carboxymethylcellulose (CMC)).
Regarding `O=C(O)c1cc(O)cc(O)c1`, the T/C is, setting by setting: (dose: 25.0 mg/kg/injection, schedule: Q01DX009 (ip), vehicle: Klucel (hydroxypropylcellulose) (HPC)) 100 % of control; (dose: 50.0 mg/kg/injection, schedule: Q01DX009 (ip), vehicle: Klucel (hydroxypropylcellulose) (HPC)) 97 % of control; under setting [9], 100 % of control.
Take `COc1ccc(OC)c(NC(=O)Nc2ccc(Nc3ccccc3)cc2)c1`: the T/C by setting is: under setting [5], 93 % of control; under setting [6], 100 % of control.
Take `CCOP(=O)(CCBr)Oc1ccc([N+](=O)[O-])cc1` (stereo not drawn): the T/C (dose: 0.5 mg/kg/injection, schedule: Q01DX001 (ip), vehicle: saline) is 97 % of control; the T/C (dose: 1.0 mg/kg/injection, schedule: Q01DX001 (ip), vehicle: saline) is 97 % of control; the T/C (dose: 2.0 mg/kg/injection, schedule: Q01DX001 (ip), vehicle: saline) is 103 % of control; the T/C (dose: 4.0 mg/kg/injection, schedule: Q01DX001 (ip), vehicle: saline) is 107 % of control.
On to `Cc1ccc(C2Nc3ccccc3S(=O)(=O)C2c2ccccc2)cc1` (stereo not drawn), for which the T/C is, setting by setting: under setting [10], 95 % of control; under setting [11], 106 % of control; (dose: 400.0 mg/kg/injection, schedule: Q01DX001 (ip), vehicle: Klucel (hydroxypropylcellulose) (HPC)) 101 % of control.
For `O=C(O)C1=CCC=CC1C(=O)O` (stereo not drawn), the T/C is, setting by setting: (dose: 25.0 mg/kg/injection, schedule: Q01DX009 (ip), vehicle: saline) 93 % of control; (dose: 50.0 mg/kg/injection, schedule: Q01DX009 (ip), vehicle: saline) 95 % of control; under setting [12], 98 % of control; under setting [13], 95 % of control; under setting [14], 93 % of control.
With `O=c1[nH]c(C(F)(F)F)c(CCCCc2ccccc2)c(=O)[nH]1`, the T/C is, setting by setting: (dose: 50.0 mg/kg/injection, schedule: Q01DX001 (ip), vehicle: Klucel (hydroxypropylcellulose) (HPC)) 105 % of control; under setting [10], 94 % of control; under setting [11], 90 % of control.
With `O=C(C1=CC(c2ccccc2)=Nc2ccccc2N1)c1ccccc1`, the T/C (dose: 100.0 mg/kg/injection, schedule: Q04DX003 (ip), vehicle: other) is 89 % of control; the T/C (dose: 200.0 mg/kg/injection, schedule: Q04DX003 (ip), vehicle: other) is 110 % of control; the T/C (dose: 400.0 mg/kg/injection, schedule: Q04DX003 (ip), vehicle: other) was 94 % of control.
`O=C(O)C1CCC[N-]C1.O=C(O)C1CCC[N-]C1.O=C(O)C1CCC[N-]C1.O=C(O)C1CCC[N-]C1.[Cl][Rh][Cl]` (stereo not drawn): the T/C was 104 % of control under setting [12]; 96 % of control under setting [13]; 104 % of control (dose: 200.0 mg/kg/injection, schedule: Q01DX009 (ip), vehicle: saline); 102 % of control under setting [14]; 90 % of control (dose: 400.0 mg/kg/injection, schedule: Q01DX009 (ip), vehicle: saline); 96 % of control (dose: 400.0 mg/kg/injection, schedule: Q04DX003 (ip), vehicle: saline).
